The source of these data is paper PMC5243976 (Iranian Journal of Basic Medical Sciences, 2017).

This assay has as its target acetylcholinesterase from electric eel source (AChE, E.C. 3.1.1.7, Type V-S) (Electrophorus electricus, UniProt O42275). Put plainly: Ellman test, anti-acetylcholinesterase activity. It counts as biochemical. On the technique in general: DTNB colorimetry detects thiols as they appear.

Sequence of acetylcholinesterase from electric eel source (AChE, E.C. 3.1.1.7, Type V-S) (O42275 24-633): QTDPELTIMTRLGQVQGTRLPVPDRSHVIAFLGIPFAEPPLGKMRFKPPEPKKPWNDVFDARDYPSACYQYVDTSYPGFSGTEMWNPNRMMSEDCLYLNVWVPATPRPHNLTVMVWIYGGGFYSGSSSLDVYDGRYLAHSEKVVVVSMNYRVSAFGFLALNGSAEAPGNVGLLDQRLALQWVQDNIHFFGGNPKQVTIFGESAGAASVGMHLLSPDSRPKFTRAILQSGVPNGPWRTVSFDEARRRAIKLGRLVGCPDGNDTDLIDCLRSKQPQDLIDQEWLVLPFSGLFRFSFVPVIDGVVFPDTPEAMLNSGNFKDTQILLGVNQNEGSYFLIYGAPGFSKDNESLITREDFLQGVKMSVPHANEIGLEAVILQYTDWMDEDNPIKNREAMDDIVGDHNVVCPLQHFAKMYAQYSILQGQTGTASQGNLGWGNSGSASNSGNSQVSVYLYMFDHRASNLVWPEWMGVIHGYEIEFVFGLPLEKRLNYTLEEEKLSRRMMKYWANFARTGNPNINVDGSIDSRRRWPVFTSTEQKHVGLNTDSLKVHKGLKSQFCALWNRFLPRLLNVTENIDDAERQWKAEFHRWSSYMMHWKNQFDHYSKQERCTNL

With `O=C(c1ccccc1Cl)N1CCN(CCN2C(=O)c3ccccc3C2=O)CC1` [Compound 4a, 2-(2-(4-(2-Chlorobenzoyl)piperazin-1-yl)ethyl) isoindoline-1,3-dione], the IC50 (commonly the midpoint of a concentration-inhibition curve) was 333 µM.

Regarding `O=C(c1cccc(Cl)c1)N1CCN(CCN2C(=O)c3ccccc3C2=O)CC1` [Compound 4b, 2-(2-(4-(3-Chlorobenzoyl)piperazin-1-yl)ethyl) isoindoline-1,3-dione], the IC50 stood at 70.2 µM.

`O=C(c1ccc(Cl)cc1)N1CCN(CCN2C(=O)c3ccccc3C2=O)CC1` [Compound 4c, 2-(2-(4-(4-Chlorobenzoyl)piperazin-1-yl)ethyl) isoindoline-1,3-dione]: the IC50 was > 1000 µM.

In turn, `O=C(c1ccccc1F)N1CCN(CCN2C(=O)c3ccccc3C2=O)CC1` [Compound 4d, 2-(2-(4-(2-Fluorobenzoyl)piperazin-1-yl)ethyl) isoindoline-1,3-dione] showed an IC50 of 3.6 µM.

With `O=C(c1cccc(F)c1)N1CCN(CCN2C(=O)c3ccccc3C2=O)CC1` [Compound 4e, 2-(2-(4-(3-Fluorobenzoyl)piperazin-1-yl)ethyl) isoindoline-1,3-dione], the IC50 was 0.0071 µM.

The molecule `O=C(c1ccc(F)cc1)N1CCN(CCN2C(=O)c3ccccc3C2=O)CC1` [Compound 4f, 2-(2-(4-(4-Fluorobenzoyl)piperazin-1-yl)ethyl) isoindoline-1,3-dione] displayed a half-maximal inhibitory concentration (IC50) of 50.6 µM. Compared with the last molecule, the IC50 is about 7100-fold higher.

Take `COc1ccccc1C(=O)N1CCN(CCN2C(=O)c3ccccc3C2=O)CC1` [Compound 4g, 2-(2-(4-(2-Methoxybenzoyl)piperazin-1-yl)ethyl) isoindoline-1,3-dione]: half-maximal inhibition (IC50) required 100 µM.

Molecule `COc1cccc(C(=O)N2CCN(CCN3C(=O)c4ccccc4C3=O)CC2)c1` [Compound 4h, 2-(2-(4-(3-Methoxybenzoyl)piperazin-1-yl)ethyl) isoindoline-1,3-dione] returned an IC50 of 1.3 µM.

`COc1ccc(C(=O)N2CCN(CCN3C(=O)c4ccccc4C3=O)CC2)cc1` [Compound 4i, 2-(2-(4-(4-Methoxybenzoyl)piperazin-1-yl)ethyl) isoindoline-1,3-dione] had an IC50 of 0.0203 µM.

Molecule `O=C(c1ccccc1[N+](=O)[O-])N1CCN(CCN2C(=O)c3ccccc3C2=O)CC1` [Compound 4j, 2-(2-(4-(2-Nitrobenzoyl)piperazin-1-yl)ethyl) isoindoline-1,3-dione] returned an IC50 of 141 µM.
